Source: patent publication US11517597B2, “Method for improving skin condition with postbiotic extract” (CHAMBIO CO., LTD., priority 2020, dated 2022)

What was measured:
[1] = test system: Hs68 cells; assay: TGF-β content of Hs68 cells (ELISA); assay type: cell-based, Human; settings: 24 hours
Method: (§1) • 2. Human foreskin fibroblast cell line Hs68 was purchased from the Bioresource Collection and Research Center of the Food Industry Research and Development Institute (BCRC of FIRDI, Taiwan). Hs68 cells were grown in a 10-cm Petri dish containing Dulbecco's Modified Eagle's Medium (DMEM) (Thermo Fisher Scientific) supplemented with 10% fetal bovine serum (FBS). The Hs68 cells were cultivated in an incubator with culture conditions set at 37° C. and 5% CO2. Medium change was performed every two to three days. Cell passage was performed when the cultured cells reached 80%-90% of confluence. • 3.
General Procedures: • 1. Determination of transforming growth factor-β (TGF-β) content
The TGF-β content was determined using an enzyme-linked immunosorbent assay (ELISA) kit (Cat. No. 559119, BD Biosciences) in accordance with the manufacturer's instructions.
(§2) Hs68 cells were divided into 25 groups, including one control group, twelve comparative groups (i.e., comparative groups L-1 to L-6 and B-1 to B-6), and twelve experimental groups (i.e., experimental groups L-1 to L-6 and B-1 to B-6). Each group of the Hs68 cells was incubated in a respective well of a 96-well culture plate containing 200 μL of DMEM at 1×10^4 cells/well, followed by cultivation in an incubator (37° C., 5% CO2) for 24 hours. […] The cell culture of the control group received no treatment.
After cultivation in an incubator (37° C., 5% CO2) for 24 hours, the respective resultant cell culture was subjected to the determination of TGF-β content according to the method described in section 1 of “General Procedures”.
(§3) Hs68 cells were divided into 28 groups, including fourteen comparative groups (i.e., comparative groups 1 L to 7 L and 1H to 7H) and fourteen experimental groups (i.e., experimental groups 1 L to 7 L and 1B to 7B). Each group of the Hs68 cells was incubated in a respective well of a 96-well culture plate containing 200 μL of DMEM at 1×10^4 cells/well, followed by cultivation in an incubator (37° C., 5% CO2) for 24 hours.

[2] = test system: Hs68 cells; assay: Proliferation of Hs68 cells (MTT, OD570 converted to cell number); assay type: cell-based, Human; settings: 24 hours
Method: as §1
as §2, with “3” for “25”, “group” for “group, twelve comparative groups (i.e., comparative groups L-1 to L-6”, “two” for “B-1 to B-6), and twelve”, “L” for “L-1 to L-6”, “B).” for “B-1 to B-6).”
After cultivation in an incubator (37° C., 5% CO2) for 24 hours, the respective resultant cell culture was stained with 3-(4,5-Dimethylthiazol-2-yl)-2,5-diphenyltetrazolium bromide (MTT), followed by subjecting the stained cells to determination of absorbance at a wavelength of 570 nm by a spectrophotometer. The OD570 values obtained were subsequently converted to cell numbers based on a correlation curve previously prepared by plotting different known cell numbers of Hs68 cells versus their OD570 values.
as §3
After cultivation in an incubator (37° C., 5% CO2) for 24 hours, the cell number of each group was determined according to the method described in section C of this example. The fold increase of viable cells was calculated using the following Equation (II): C=D/E (II) where C=fold increase of viable cells • D=cell number of respective experimental group or comparative group • E=cell number of corresponding comparative group 1 L, 2 L, 3 L, 4 L, 5 L, 6 L, or 7 L

[3] = nutritional component only 100 mg/L
[4] = nutritional component only 200 mg/L
[5] = nutritional component only 100 mg/L (the reference group of Equation II)
[6] = nutritional component only 200 mg/L, relative to 100 mg/L group

Molecule | TGF-β content [1, 3] [pg/mL] | TGF-β content [1, 4] [pg/mL] | Fold increase of viable Cells [2, 5] | Fold increase of viable Cells [2, 6]
N[C@H]1C(O)O[C@H](CO)[C@@H](O)[C@@H]1O (stereo partly drawn) [Glucosamine] | 51.1 | 61.3 | 1.0 | 1.1
O=C1O[C@H]([C@@H](O)CO)C(O)=C1O [Vitamin C] | 52.2 | 63.1 | 1.0 | 1.1
Chondroitin | 120.5 | 128.8 | 1.0 | 1.1
